Assay results: patent US20130053374A1, “OPHTHALMIC COMPOSITION” (priority 2010, published 2013)
In brackets after ≈: the same amount, converted by molar mass. Like-named read-outs stand apart in the source and are kept apart here.

Experiments:
intact rabbit corneas [1] = tested on: intact rabbit corneas
Source text: These suspension solutions were used directly as sample donor solutions for the cornea permeation study. In order to determine the solubility, the suspensions were filtered through 0.45 μm syringe filters.
Three male rabbits (New Zealand) weighing 2 to 3 kg. Immediately after sacrifice by an overdose of inhaler isoflurane, the eyes were enucleated, and the corneas were separated for use in the permeation experiments.

intact rabbit corneas [2] = tested on: intact rabbit corneas; remark: listed apart in the source
Protocol: 10 mM phosphate buffer was added to the appropriately weighed mass of the solid active ingredients, and stirred thoroughly for 15 minutes. […] The three test solutions were then stirred for 10 minutes at room temperature (with heating up to 60° C. for 5 minutes). After stirring, the solution was sonicated for 5 minutes. After allowing the complete dilution of all the active and non-active ingredients, the pH was adjusted to either 7.4 or 5.65 by using 1 M NaOH or 1 M HCl, and additional buffer was added to make up the exact compositions in the Table 15. With the adjustment of pH, the appearance was noted as per Table 14, and the formulations were further equilibrated by stirring for an additional 15 hours or more at room temperature. The pH of the all sample solutions was measured again to confirm the final desired pH. These formulations were used directly as sample donor solutions for the cornea permeation study.

intact rabbit corneas [3] = settings: for enhancement of corneal permeation rate: male, New Zealand, rabbit, 180 min, pH 5.65
Protocol: The samples were filtered by 0.45 μm filter syringe. The initial concentration of both the samples was determined by UPLC analysis.
Three male rabbits (New Zealand) weighing 3-4 pounds. The age of the rabbits was 11-12 weeks. Immediately after sacrifice by an overdose of carbon dioxide gas, the eyes were enucleated, saline washed, and the corneas were separated for the use in permeation experiments. Each cornea was rinsed with freshly prepared receptor solution (Table 4) to remove excess stain. The six intact and fresh corneas were fixed between clamped donor and receptor compartments of an all glass side-by-side diffusion cell in such a way that its epithelial surface faces the donor compartment.
The corneal area available for permeation was 0.211 cm^2. The receptor compartment was filled with freshly prepared receptor solution at pH 7.2, as per the composition described in Table 4. An aliquot (5 mL) of sample #1 was placed on the two intact corneas, and the opening of the donor cells was sealed with a glass cover slip. After 10 minutes of applying sample #1, an aliquot (5 mL) of sample #2 was applied on the next two intact corneas. Again, after 10 minutes, sample #3 aliquot (5 mL) was applied on the remaining two intact corneas. The receptor fluid (5 mL in each receptor cell) was kept at constant temperature of 34° C. using constant stirring through water jacket in all the six cases. At predetermined time intervals of 10, 20, 40, 60, 80, 100, 120, 140, 160, and 180 minutes, 200 μL samples were withdrawn from the receptor solution. Thereafter, the same amount of the phosphate buffer solution was added to the receptor cell. The drug concentrations were assayed by UPLC.
At the end of the experiment, each cornea (free from adhering sclera) was weighed after soaking in de-ionized water. The wet cornea was dried overnight in oven, and reweighed. From the difference of weights, corneal hydration was calculated. […] The parameters that were calculated are as follows:

[4] = pH-solubility of Dorzolamide with hyperbranched polymer and PEG (Experimental Example 1); format: physicochemical; settings: 0.1% (w/v) phosphate buffer, FIG. 1
Protocol: Similar suspensions were also prepared in aqueous solution containing different concentrations of different HP and PEG with a molecular weight of 8000. A combination of Polysorbate 80 and PEG 8000 was also attempted. The pH was measured accurately with micro-pH electrode (Thermo Scientific). The desired pH was adjusted using either 1 M NaOH or 1 M HCl. […] After allowing the suspensions to equilibrate at room temperature for an additional 30 minutes, the suspension solutions were then sonicated for 10 minutes and finally filtered through 0.45 μm syringe filters.

[5] = cited from earlier work; for pKa (amine group): protonated secondary amine (Dorzolamide), amine (Brinzolamide); for pKa (sulfonamide group): sulfonamide (Dorzolamide), primary sulfonamide (Brinzolamide)
isolated rabbit cornea = settings: pH 7.4
Source text: The permeability coefficient is inversely proportional to the initial concentration of the drug in the donor solution.

[6] = Aqueous solubility of Dorzolamide in the presence of Timolol with HP, PEG, Polysorbate 80 (Experimental Example 3); format: physicochemical
Protocol: The final pH was adjusted to 5.65 with 1 M NaOH after addition of HP (sample 1). The combination of different molecular weight PEG and Polysorbate 80 at pH 5.65 as per Table 3 were also attempted. […] After allowing the suspensions to equilibrate at room temperature for an additional 30 minutes, the suspension solutions were then sonicated for 10 minutes and finally filtered through 0.45 μm syringe filters.

[7] = pH 7.4, 0.5% (w/v) Timolol, 5% (w/v) HP (Boltorn W3000)
Protocol: The emulsion was prepared by slowing dispersing water to the weighed amount of waxed Boltorn® W3000 to make 5% (w/v) emulsion with continuous stirring and heating at 60-70° C. for at least 30 minutes, followed by continuous vigorous stirring for an additional 15 hours, to obtain a homogeneous emulsion mixture in a flask.
10 mM phosphate buffer was added to the appropriately weighed mass of solid active ingredients and stirred thoroughly for 15 minutes. Secondly, the effective volume of 5% (w/v) HP emulsion solution was diluted appropriately to make up the exact concentrations described in Table 13. The sample test emulsion solutions were then stirred for 10 minutes at room temperature (with heating up to 60° C. for 5 minutes). After stirring, the emulsion solution was sonicated for 5 minutes. After allowing the complete emulsion of all the active and non-active ingredients, the pH was adjusted to 7.4 by using 1 M NaOH, and additional buffer was added to make up the exact compositions in Table 13. With the adjustment of the pH, the emulsion solutions were further equilibrated by stirring for an additional 15 hours or more at room temperature. The pH of all the sample emulsion solutions was measured again to confirm the final desired pH of 7.4.

[8] = Solubility of CAI with Bis-MPA hyperbranched polyester or PEG combination at pH 7.4 (Experimental Example 9); format: physicochemical; settings: pH 7.4, 0.5% Timolol, 5% 3rd BMPA-HP
Protocol: Secondly, the effective volume of 5% (w/v) BMPA-HP solution was diluted appropriately to make up the exact concentrations described in Table 18. […] After stirring, the solution was sonicated for 5 minutes. […] The filtrates were analyzed for CAI using UPLC with the same condition as EXPERIMENTAL EXAMPLE 1.

physchem = format: physicochemical; settings: pH 7, aqueous with cosolvent or surfactant or cyclodextrin, thermodynamic from solid
Protocol: After allowing the suspensions to equilibrate at room temperature for additional 30 minutes, the suspension solutions were then sonicated for 10 min and finally filtered through 0.45 μm syringe filters.

| Compound | diffusion coefficient on addition of HP (intact rabbit corneas [1]) | diffusion coefficient on addition of HP (intact rabbit corneas [2]) | diffusion coefficient on addition of HP and Polysorbate 80 (intact rabbit corneas [3]) | enhancement of corneal permeation rate (intact rabbit corneas [3]) | pH-solubility profile (aqueous solubility vs pH) [4] | pKa (amine group) [5] | pKa (sulfonamide group) [5] | cumulative amount permeated compared to the market product (isolated rabbit cornea) | solubility thermodynamic at 30 min ([6]; aqueous buffer, thermodynamic from solid, pH 7, 10 mM phosphate buffer, no additives) [mg/mL] | cumulative amount permeated relative to control formulation at similar pH with no additives (intact rabbit corneas [2]; male, New Zealand, rabbit, 180 min, pH 7.4) [times] | cumulative amount permeated relative to the market product (isolated rabbit cornea; male, New Zealand, rabbit, 180 min) | solubility of Timolol with the addition of additives ([6]; pH 5.65 and pH 7, samples containing 0.5% w/v Timolol) | solubility [7] | solubility [8] | solubility at 30 min (physchem) [mg/mL] |
| --- | --- | --- | --- | --- | --- | --- | --- | --- | --- | --- | --- | --- | --- | --- | --- |
| CCN[C@H]1C[C@H](C)S(=O)(=O)c2sc(S(N)(=O)=O)cc21 [Dorzolamide] | did not change significantly | did not change significantly | did not change significantly | 25-30% | reaches a bottom at pH 7 | 6.35 | 8.5 | almost comparable | < 5 | – | – | – | – | – | – |
| CC(C)(C)NC[C@H](O)COc1nsnc1N1CCOCC1 [Timolol] | did not change significantly | did not change significantly | did not change significantly | 25-30% | – | – | – | – | – | ~2 | more than 2 times | did not change | – | – | – |
| CCN[C@H]1CN(CCCOC)S(=O)(=O)c2sc(S(N)(=O)=O)cc21 [Brinzolamide] | – | – | – | – | – | 5.9 | 8.4 | – | – | – | – | – | about 2 % (w/v) | about 1 % (w/v) | ~11 (≈ 28.7 mM) |
